From patent US8003634B2, “Analogs of benzoquinone-containing ansamycins and methods of use thereof” (Infinity Pharmaceuticals, Inc., priority 2003, dated 2011)
Structures can show the parent of a compound that is named as a salt. Where two headings read alike, the source gives them in different places.

Assays:
SKOV-3 cells = assay: Ovarian carcinoma model, SKOV-3 xenograft; format: in vivo; conditions: SKOV-3 s.c. in female nu/nu athymic mice; 100 mg/kg IV twice weekly; after 88 days
Description: A study was performed in the SKOV-3 ovarian mouse xenograft model to assess the ability of the test compound to reduce subcutaneous tumor burden. In this study, female nu/nu athymic mice were implanted subcutaneously with SKOV-3 cells (1×10^7 cells). When the average tumor size reached 100 mm^3, animals were randomly assigned to treatment groups (N=10-15/group) to receive either vehicle, the test compound at 100 mg/kg (300 mg/m^2) twice weekly. The test article or vehicle was administered intravenously (IV) via the tail vein in a volume of 0.1 mL over approximately 10 seconds (sec). The animals were sacrificed after 88 days and tumor volumes compared.
(§1) The results from the biological activity analysis of the hydroquinones of the invention are presented below. All values are expressed as the mean±SEM. Data analysis consisted of a one way analysis of variance and if appropriate followed by Dunnets test to assess differences between vehicle and treatment groups. Differences are considered significant at p<0.05.

MV4-11 cells = assay: MV4-11 cell cytotoxicity, Alamar blue; format: cell-based; conditions: Homo sapiens, 72 h, 3 days
Description: (§2) The human cancer cell lines SKBr3, MV4-11, K562, SK-MEL-28, LnCAP, and MDA-MB-468 were obtained from the American Type Culture Collection (Manassas, Va.). The multiple myeloma RPMI-8226 and MM1.s cells were from Dr. Teru Hideshima (Jerome Lipper Multiple Myeloma Center, Dana Farber Cancer Institute, Boston, Mass., USA.). All the cell lines were determined to be mycoplasma-free. The cells were maintained in RPMI-1640 medium supplemented with 10% heat-inactivated FBS, 50 units/mL streptomycin and 50 units/mL penicillin, and incubated at 37° C. in 5% CO2. Adherent cells were dissociated with 0.05% trypsin and 0.02% EDTA in phosphate buffer saline (PBS) without calcium and magnesium prior to plating for experimentation.
MV4-11 cells were incubated for 3 days with increasing concentrations of the test compound. Cell viability was assessed using an Alamar blue read out.

PC-3 cells = assay: Prostate carcinoma, PC-3 xenograft models; format: in vivo; conditions: PC-3 s.c. in male nu/nu athymic mice; single agent 100 mg/kg twice weekly; after 64 days
Description: Two studies were performed in mouse PC-3 prostate xenograft models to assess the ability of the test compound to reduce subcutaneous tumor burden as a single agent or in combination with current standard of care. In both studies male nu/nu athymic mice were implanted subcutaneously with PC-3 cells (1×10^7 cells). When the average tumor size reached 100 mm^3 animals were randomly assigned to treatment groups (N=10-15/group). In the first study mice received either vehicle, the test compound 100 mg/kg (300 mg/m^2) twice weekly. The test article or vehicle was administered via the tail vein in a volume of 0.2 mL over approximately 20 sec. The animals were sacrificed after 64 days and tumor volumes compared.
A second study was performed in this model to assess the test compound in combination with the standard of care, Taxotere. […] The animals were sacrificed after 64 days and tumor volumes compared.

MM1.s cells = assay: MM1.s cell cytotoxicity, Alamar Blue assay; format: cell-based; conditions: Homo sapiens, 72 h
Description: as §2
Alamar Blue assay. MM1.s cells (50,000/well) were incubated for 72 h with increasing concentrations of the test compound. Alamar blue was added to the wells and fluorescence measured 4 h after incubation at 37° C.

[1] = tested on: human multiple myeloma cell line RPMI-8226; assay: Multiple myeloma model, subcutaneous RPMI-8226 tumors; format: in vivo; conditions: RPMI-8226 s.c. in male SCID/NOD mice; 100 mg/kg IV three consecutive days per week; after 45 days
Description: The effects of the test compound were studied in a human multiple myeloma cell line RPMI-8226 in male SCID/NOD mice. In this study, male mice were implanted subcutaneously with RPMI-8226 cells (1×10^7 cells). When the average tumor size reached 100 mm^3, animals were randomly assigned to treatment groups (N=10-15/group) to receive either vehicle (50 mM citrate, 50 mM ascorbate, 2.4 mM EDTA adjusted to pH 3.0) or 100 mg/kg (300 mg/m^2) of the test compound three consecutive days per week. The test article or vehicle was administered intravenously (IV) via the tail vein in a volume of 0.2 mL over approximately 20 seconds (sec). The animals were sacrificed after 45 days and tumor volumes compared.
as §1

MDA-MB-468 cells = assay: MDA-MB-468 cell cytotoxicity, Alamar blue; format: cell-based; conditions: Homo sapiens, 72 h
Description: as §2
MDA-MB-468 Cells were incubated for 72 h with increasing concentrations of the test compound. For the viability studies Alamar blue was added and wells read after 6 h of incubation.

K562 cells = assay: K562 cell cytotoxicity, Alamar blue; format: cell-based; conditions: Homo sapiens
Description: as §2
K562 cells were incubated with increasing concentrations of the test compound. Cell viability was assessed using an Alamar blue read out

[2] = tested on: Native human Hsp90 protein isolated from HeLa cells; assay: Competitive binding to HSP90, fluorescence polarization assay with BODIPY-GDM; conditions: competitive binding experiment
Description: A 20 nM BODIPY-GDM solution was freshly prepared in FP binding assay buffer [20 mM HEPES-KOH, pH 7.3, 1.0 mM EDTA, 100 mM potassium chloride, 5.0 mM magnesium chloride, 0.01% NP-40, 0.1 mg/mL Bovine γ-globulin (BGG), 1.0 mM DTT, and Complete™ protease inhibitor] from a 20 μM stock solution in DMSO. […] After 3-h incubation at 30° C., fluorescence anisotropy was measured on an EnVision 2100 multilabel plate reader equipped with a 485 nm excitation filter and a 535 nm P/S emission filter (Perkin Elmer, Boston, Mass.).
A dilution series for each compound was freshly prepared in FP binding assay buffer from 20 μM to 0.20 nM. […] After 3-h incubation at 30° C., fluorescence anisotropy was measured on an EnVision 2100 plate reader.
Assays were performed under nitrogen atmosphere in a LabMaster glove box (M. Braun, Stratham, N H). […] After 3-h incubation at 30° C., the microplate was brought out of the glove box, and fluorescence anisotropy was immediately measured on an EnVision 2100 plate reader.
Binding of BODIPY-GDM to Hsp90 results in simultaneous increases in fluorescence anisotropy (FA) and intensity (FI). […]
[formula] with Hill coefficient forced to 1 for simplicity. From the values of FImax (bound ligand) and FImin (free ligand), a Q factor is calculated by: […]
[formula] and FA being expressed as the weighted sum of contributions from the free and bound forms of ligand: […]

SKBr3 cells = assay: SKBr3 cell cytotoxicity, Alamar blue; format: cell-based; conditions: Homo sapiens, SK-BR-3, 72 h
Description: as §2
SKBr3 Cells were incubated for 72 h with increasing concentrations of the test compound. For the viability studies Alamar blue was added and wells read after a 6 h incubation.

SK-MEL-28 cells = assay: SK-MEL-28 cell cytotoxicity, Alamar blue; format: cell-based; conditions: Homo sapiens, SK-MEL-28 cells, 2, 3 or 4 days
Description: as §2
Increasing concentrations of the test compound was added to SK-MEL-28 cells in culture for 2, 3 or 4 days and the viability of the cells was measured using Alamar blue.

physchem = conditions: water / aqueous solutions
Lewis lung cells = assay: Murine Lewis lung model; format: in vivo; conditions: Lewis lung cells s.c. in C57B1/6 mice; 75 mg/m^2 MWF for 3 cycles, tail vein; after 25 days
Description: A study was performed in the mouse Lewis lung model to assess the ability of the compounds of the present invention to reduce both subcutaneous tumor burden as well as the incidence of lung metastasis. In this study C57B1/6 mice were implanted subcutaneously with Lewis lung cells (1×10^6 cells). When the average tumor size reached 71 mm^3 animals (N=10-15/group) were randomly assigned to the following treatment groups: vehicle and compound 15 75 mg/m^2 Monday, Wednesday and Friday (MWF) for 3 cycles. Each cycle consisted of […] of treatment. The test article or vehicle was administered via the tail vein in a volume of 0.2 mL over approximately 30 sec. The animals were sacrificed after 25 days and tumor volumes were compared.
as §1

LnCAP cells = assay: LnCAP cell cytotoxicity, Alamar blue; format: cell-based; conditions: Homo sapiens, 96 h, 4 days
Description: as §2
Increasing concentrations of the test compound added to LnCAP cells in culture for 4 days and the viability of the cells was measured using Alamar blue.

[3] = tested on: MDA-MB-468 breast carcinoma; assay: Breast carcinoma model, subcutaneous MDA-MB-468 tumors; format: in vivo; conditions: MDA-MB-468 s.c. in female nu/nu athymic mice; 100 mg/kg IV twice weekly; after 120 days
Description: A study was performed in the MDA-MB-468 breast carcinoma model to assess the ability of the test compound to reduce subcutaneous tumor burden. In this study, female nu/nu athymic mice were implanted subcutaneously with MDA-MB-468 cells (1×10^7 cells). When the average tumor size reached 100 mm^3, animals were randomly assigned (N=10-15/group) to one of the following treatment groups; vehicle or the test compound at 100 mg/kg (300 mg/m^2) twice weekly every week. The test article or vehicle was administered intravenously (IV) via the tail vein in a volume of 0.2 mL over approximately 20 seconds (sec). The animals were sacrificed after 120 days and tumor volumes compared.
as §1

[4] = tested on: NCI 60 tumor cell line panel; conditions: Developmental Therapeutics Program Website, read-out: mean IC50 over all cell lines in the panel; cited from earlier work
[5] = water / aqueous solutions

Structure (SMILES)	% Tumor Growth Compared to Vehicle (SKOV-3 cells)	EC50 (MV4-11 cells)	% Tumor Growth Compared to Vehicle (PC-3 cells)	EC50 (MM1.s cells)	% Tumor Growth Compared to Vehicle [1]	EC50 (MDA-MB-468 cells)	EC50 (K562 cells)	HSP90 inhibition (summary in words) [2]	EC50 (SKBr3 cells)	EC50 (SK-MEL-28 cells)	solubility (physchem)	% Tumor Growth Compared to Vehicle (Lewis lung cells)	EC50 (LnCAP cells)	% Tumor Growth Compared to Vehicle [3]	IC50 [4]	solubility [5]
C=CCNc1c(O)cc2c(O)c1C[C@@H](C)C[C@H](OC)[C@H](O)[C@@H](C)/C=C(\C)[C@H](OC(N)=O)[C@@H](OC)/C=C\C=C(/C)C(=O)N2 [Compound 15, HCl Salt of the Hydroquinone of 17-AAG]	59%	25 nM	50%	307 nM	71%	335 nM	29 nM	active HSP90 inhibitors	32 nM	200 nM	> 200 mg/mL	60%	73 nM	76%	–	–
C=CCNC1=C2C[C@@H](C)C[C@H](OC)[C@H](O)[C@@H](C)/C=C(\C)[C@H](OC(N)=O)[C@@H](OC)/C=C\C=C(/C)C(=O)NC(=CC1=O)C2=O [Compound 17-AAG, 17-allylamino-17-demethoxygeldanamycin, reference compound]	–	38 nM	–	306 nM	–	356 nM	50 nM	–	34 nM	–	–	–	–	–	120 nM	–
C=CCNc1c(O)cc2c(O)c1C[C@@H](C)C[C@H](OC)[C@H](O)[C@@H](C)/C=C(\C)[C@H](OC(N)=O)[C@@H](OC)/C=C\C=C(/C)C(=O)N2 [hydroquinone of 17-AAG, 17-allylamino-18,21-dihydro-17-demethoxygeldanamycin]	–	–	–	–	–	–	–	–	–	–	–	–	–	–	–	1 to 3 mg/mL
